SMILES strings stand for the structures.

Data on one molecule can be found in ChEMBL document CHEMBL1140820, “beta-N-Biaryl ether sulfonamide hydroxamates as potent gelatinase inhibitors: part 2. Optimization of alpha-amino substituents” (Bioorg Med Chem Lett, 2008).

The nature of data set [1]: Apparent elimination half life in rat at 0.5 mg/kg, iv. The conditions noted are these: in vivo, read-out: beta t1/2 (converted). The data set is classed as ADME, organism-based. On the set-up: dose 0.5 mg/kg, route intravenous.
The nature of data set [2]: Volume of distribution at steady state in rat at 0.5 mg/kg, iv. In kind it is ADME, organism-based. Set-up: dose 0.5 mg/kg, route intravenous. The conditions noted are these: in vivo, read-out: Vdss.
Data set [3] is described as follows: Aqueous solubility at pH 2.0. In kind it is physicochemical.
A short description of data set [4]: Cmax in rat at 0.5 mg/kg, iv. On the set-up: dose 0.5 mg/kg, route intravenous. The conditions noted are these: in vivo. The data set is classed as ADME, organism-based.
Data set [5] in a line: Metabolic stability in human liver microsomes assessed as half life […]. The data set is classed as ADME, Microsome. In general terms: Liver microsomes are a subcellular fraction often used to study metabolism.
Data set [6] in a line: Protein binding in rat at 0.5 mg/kg, iv. Set-up: dose 0.5 mg/kg, route intravenous. In kind it is ADME, organism-based. Particulars: plasma, read-out: PPB (converted).
A short description of data set [7]: Selectivity for MMP9 over MMP2.
Data set [8] can be described thus: Aqueous solubility at pH 7.0. In kind it is physicochemical.
Data set [9] can be described thus: Metabolic stability in rat liver microsomes assessed as half life […]. In kind it is ADME, Microsome.
Data set [10] has as its system Rattus norvegicus. Put plainly: Reduction of ischemia induced brain edema in Sprague-Dawley rat tMCAo model at 2 mg/kg, iv after 3 hrs. The data set is classed as functional. Set-up: scale not given: the % may be the effect or the level left.
The nature of data set [11]: Clearance in rat at 0.5 mg/kg, iv. In kind it is ADME, organism-based. The conditions noted are these: in vivo. Set-up: dose 0.5 mg/kg, route intravenous.
The nature of data set [12]: AUC in rat at 0.5 mg/kg, iv. The data set is classed as ADME, organism-based. Set-up: dose 0.5 mg/kg, route intravenous. Particulars: plasma.

As to `CS(=O)(=O)N(C[C@@H](C(=O)NO)N1CCOCC1)c1ccc(Oc2ccc(C(F)(F)F)cc2)cc1`, the half-life is 0.2 h in [1], > 2 h in data set [5] and > 2 h in data set [9]. Moreover, the Vd in data set [2] worked out at 0.99 L/kg. Also, the solubility in data set [3] and in [8] was > 70 µg/mL throughout. Also, the highest level in [4] (Cmax) was 860 nM. For the same molecule, the fraction unbound in data set [6] is 0.26. For the same molecule, the Ratio IC50 in [7] stood at 3.2. Moreover, the Activity in data set [10] was 3.3%. The clearance (usually a measure of how efficiently the substance is removed, as volume per time) in [11] is 65.4 mL/min/kg. The area under the curve (AUC) (as a rule, concentration integrated over time) in data set [12] came to 130 ng·h/mL.
